System: reuptake of all three monoamines
Test: monoamine reuptake inhibition profile (summary in words of Table 1)
Type: biochemical, rat
Details: with reference to Table 1, sibutramine through its pharmacologically active metabolites

CC(C)CC(N(C)C)C1(c2ccc(Cl)cc2)CCC1 (stereo not shown) [Sibutramine, N,N-dimethyl-1-[1-(4-chlorophenyl)cyclobutyl]-3-methylbutylamine]
inhibition of monoamine reuptake / selectivity profile: inhibits the reuptake of all three monoamines

Source: patent US6232347A, “Treatment of osteoarthritis” (Knoll Pharmaceutical Company, priority 2000, dated 2001)
